Test results taken from paper PMC3525752 (Bioorganic & medicinal chemistry, 2012).
pIC50: −log10 of the molar value.

Tests used:
Mtb = conditions: in Mtb; cited from earlier work
Mtb H37Rv = assay: Minimum inhibitory concentration; conditions: for fold drop/change in potency (MIC) relative to parent compound 1: versus lead 1
[1] = system: murine macrophage cell line J774.1; assay: Cytotoxicity by Alamar Blue, 3 days; type: cell-based; conditions: J774.1 cells, two-fold dilutions starting at 60 µM
IκB kinase β = conditions: cited from earlier work

Row | Molecule | fold drop/change in potency (MIC) relative to parent compound 1 (Mtb H37Rv) | also measured
1 | O=C(Nc1ccc([N+](=O)[O-])cc1Cl)c1cc(Cl)ccc1O [niclosamide] |  | effect on membrane potential and pH homeostasis (Mtb): disruption of membrane potential and pH homeostasis
2 | O=C(Nc1cc(C(F)(F)F)cc(C(F)(F)F)c1)c1cc(I)ccc1O [Compound 9, N-(3,5-Bis(trifluoromethyl)phenyl)-2-hydroxy-5-iodobenzamide] | 2 fold | 
3 | O=C(Nc1ccccc1C(F)(F)F)c1cc(Cl)ccc1O [Compound 28, 5-Chloro-2-hydroxy-N-(2-trifluoromethyl-phenyl)-benzamide] |  | fold loss in activity on moving single CF3 from meta to ortho (Mtb H37Rv; versus meta-CF3 compound 27): 4–8 fold
4 | O=C(Nc1ccccc1)c1cc(Cl)ccc1O [Compound 26, 5-Chloro-2-hydroxy-N-phenylbenzamide] | 4–8 fold | 
5 | N-(3-Bromo-5-(trifluoromethyl)phenyl)-5-chloro-2-hydroxy-benzamide [Compound 74] |  | pIC50 [1]: 5.24
6 | O=C(Nc1cc(C(F)(F)F)cc(C(F)(F)F)c1)c1cc(Br)ccc1O [Compound 8, N-(3,5-Bis(trifluoromethyl)phenyl)-5-bromo-2-hydroxybenzamide] | 2 fold | 
7 | O=C(Nc1cc(C(F)(F)F)cc(C(F)(F)F)c1)c1cc(F)ccc1O [Compound 7, N-(3,5-Bis(trifluoromethyl)phenyl)-5-fluoro-2-hydroxy-benzamide] | 2 fold | 
8 | O=C(Nc1cccc(Br)c1)c1cc(Cl)ccc1O [Compound 35, N-(3-Bromophenyl)-5-chloro-2-hydroxybenzamide] | 2–4 fold | 
9 | O=C(Nc1cc(C(F)(F)F)cc(C(F)(F)F)c1)c1cc(Cl)ccc1O [Compound 1, N-(3,5-bis(trifluoromethyl)phenyl)-5-chloro-2-hydroxybenzamide] |  | inhibition of IκB kinase β (IκB kinase β): potent inhibitor
10 | O=C(Nc1cccc(F)c1)c1cc(Cl)ccc1O [Compound 34, 5-Chloro-N-(3-fluorophenyl)-2-hydroxybenzamide] | 2–4 fold | 
11 | O=C(Nc1cc(C(F)(F)F)cc(C(F)(F)F)c1)c1ccccc1O [Compound 2, N-(3,5-Bis(trifluoromethyl)phenyl)-2-hydroxybenzamide] | 2–4 fold | 
